Source: US5214156A, “Therapeutically useful tetralin derivatives” (The Upjohn Company, priority 1992, dated 1993)
Like-named read-outs stand apart in the source and are kept apart here.

Columns and labels:
[1] = system: dopamine receptors; settings: background; cited from earlier work
[2] = system: Reserpine Pretreated Rats; assay: Gross behavior (antagonism of reserpine-induced neuroleptic syndrome); type: in vivo, rat
From the text: Antagonism of the reserpine-induced "neuroleptic syndrome" in the rat (gross behavior)
Depletion of the monoamine stores with reserpine brings about a "neuroleptic syndrome" characterized by hypomotility, catalepsy, muscle rigidity, hunch-backed posture as well as a number of other central and peripheral signs of monoamine depletion. The whole or parts of this syndrome can be reversed by the administration of drugs that stimulate dopamine or 5-HT receptors directly or indirectly.
Stimulation of the dopamine receptors, with apomorphine for example, gives rise to both locomotion and stereotyped behavior such as sniffing, gnawing and jumping. On the other hand, stimulation of the 5-HT receptors, with 5-hydroxytryptophane (5-HTP) combined with MAO-inhibitors for example, gives rise to a very different behavior.
(§1) Rats (150-300 g) pretreated with reserpine (5 mg/kg, 18 hours before) were given the test compounds. Gross behavioral observations (changes in motility, hindleg abduction, etc.) were made. Subsequent administration of NSD 1015, decapitation, brain dissection (corpora striata, the limbic forebrain and the remaining hemispheral portions (mainly cortex) or rat brain), homogenization, centrifugation, ion-exchange chromatography and spectrofluorimetric measurements (all as described in detail by Wikstrom, et al., J. Med. Chem., 21, 864-867, 1978 and reference cited therein), or by HPLC/EC, gave the actual dopamine and 5-HTP levels. Several doses (n-4-6) were tested for each compound and brain area. The dose of a compound giving 50% of the maximal reduction of the %-HTP level in the rat brain part was then estimated.
^d The gross behavior of the animals was observed during the course o
the experiments. The 5HT behavioral syndrome consisted of flat body
psoture, abducted hind and forelegs, forepaw treading (pianoplaying) and […]

[3] = Bioavailability from ED50 values after s.c. and p.o. administration; type: in vivo, rat; settings: comparing ED50 values, reserpine-pretreated rats
From the text: ^f "Bioch" denotes the bioavailability as estimated by comparing the
ED50 values after s.c. and p.o. administration (reserpinepretreated rats)

[4] = biological target: T1, 5-HT1A receptor (Homo sapiens, UniProt P08908); assay: In vitro binding, 5-HT1A
T1 sequence (P08908 1-422): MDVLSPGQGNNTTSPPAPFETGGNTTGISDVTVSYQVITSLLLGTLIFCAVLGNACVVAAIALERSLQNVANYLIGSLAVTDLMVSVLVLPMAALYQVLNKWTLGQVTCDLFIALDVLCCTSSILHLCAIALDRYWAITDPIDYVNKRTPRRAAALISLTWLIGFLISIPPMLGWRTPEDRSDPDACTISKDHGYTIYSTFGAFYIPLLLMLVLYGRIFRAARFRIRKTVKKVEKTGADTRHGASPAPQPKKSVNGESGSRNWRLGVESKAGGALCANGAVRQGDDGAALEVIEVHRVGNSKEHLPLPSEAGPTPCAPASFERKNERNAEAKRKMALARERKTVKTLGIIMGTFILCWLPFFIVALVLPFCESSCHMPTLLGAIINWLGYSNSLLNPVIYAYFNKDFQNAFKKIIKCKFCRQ
From the text: The compounds of this invention where --OR1 is in the 8 position in the aromatic ring are very selective 5-HT1A receptor agonists having little or no dopaminergic activity. […] These compounds are particularly effective anxiolytic and antidepressant agents. Other uses for these compounds include panic attacks, obsessive-compulsive disturbances, and senile dementia particularly the emotional disturbances seen in dementia disorders. In addition, central 5-HT receptor activation are believed to be involved in mediating sexual behavior. These compounds would be useful to stimulate sexual activity and to alleviate impotence.

[5] = system: 5-HT receptor; assay: In-vivo tryptophan hydroxylation (5-HTP formation) in limbic forebrain of reserpine-pretreated rats after NSD 1015; design: species or system rat; settings: limbic brain part
Protocol: In-vivo determination of rat brain tyrosine and tryptophan hydroxylation after reserpine pretreatment (biochemically monitored dopamine and 5-HT receptor activity)
The compounds under evaluation were tested biochemically for central dopamine and 5-HT receptor (pre- and/or postsynaptic) stimulating activity. The concept of this biochemical screening method is that a dopamine or 5-HT-receptor agonist will stimulate the receptor and through regulatory feedback systems effect a decline in tyrosine or tryptophan hydroxylating activity, respectively, and a subsequent reduction in the synthesis rate for dopamine and 5-HT in the presynaptic neuron. Dopamine and 5-HTP formation, as determined after in-vivo inhibition of the aromatic L-amino acid decarboxylase with NSD 1015 (3-hydroxybenzylhydrazine hydrochloride) are taken as indirect measures of dopamine and 5-HT-synthesis rates, respectively.
as §1
^b Dose giving a half maximal decrease of 5HTP formation in the rat
limbic brain part. The values were estimated from doseresponse curves
comprising 4 to 6 levels (n = 4).
Control level was: 191 ng/g.

[6] = biological target: dopamine D2 receptor (Homo sapiens, UniProt P14416); assay: In vitro binding, dopamine D2
Protocol: ^e The affinity of the test compounds for dopamine D2 receptor sites
was determined by calculating the IC50 value (see text).

[7] = Bioavailability from plasma drug levels (GC/MS) after s.c. and p.o. administration; type: in vivo, rat; settings: plasma drug levels by GC/MS after s.c. and p.o.; nonpretreated rats
From the text: FIGS. 1 and 2). "Plasma" denotes the availability as estimated by
comparing plasma drug levels (measured by means of GC/MS) after s.c. and
p.o. administration of test drugs in nonpretreated rats.

[8] = Bioavailability from decrease in rectal temperature after s.c. and p.o. administration; type: in vivo, rat; settings: rectal temperature decrease after s.c. (25.0 μmol/kg) and p.o. (100.0 μmol/kg); nonpretreated rats
From the text: "Temp" denotes the bioavailabilty as estimated by comparing the decrease
in rectal temperature after s.c. (25.0 μmol/kg) and p.o. (100.0
μmol/kg) administration of the test drugs in nonpretreated rats (c.f.,
FIGS. 1 and 2). "Plasma" denotes the availability as estimated by […]

[9] = system: spontaneously hypertensive rats; assay: Blood pressure lowering in spontaneously hypertensive rats; type: in vivo, rat
From the text: Pharmacol. 37, 263-265 (1984). Without further elaboration,it is believed that one skilled in the art can, using the preceding description, practice the present invention to its fullest extent.

dopamine D2 receptor, sequence (P14416 whole entry, species assumed): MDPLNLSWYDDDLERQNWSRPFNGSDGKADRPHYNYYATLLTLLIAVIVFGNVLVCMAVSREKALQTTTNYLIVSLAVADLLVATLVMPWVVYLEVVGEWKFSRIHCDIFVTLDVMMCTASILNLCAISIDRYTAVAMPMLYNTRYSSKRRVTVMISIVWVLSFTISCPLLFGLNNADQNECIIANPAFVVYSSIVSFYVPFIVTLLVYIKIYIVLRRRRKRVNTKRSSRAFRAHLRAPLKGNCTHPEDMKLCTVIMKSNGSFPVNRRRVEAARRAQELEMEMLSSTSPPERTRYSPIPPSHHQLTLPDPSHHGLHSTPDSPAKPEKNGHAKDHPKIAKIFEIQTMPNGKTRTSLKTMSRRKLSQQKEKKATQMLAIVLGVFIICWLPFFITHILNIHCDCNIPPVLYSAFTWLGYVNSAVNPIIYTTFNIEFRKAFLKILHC

O=C1CC2(CCCC2)CC(=O)N1CCCCN1CCN(c2ncccn2)CC1 [Buspirone]
dopamine receptor antagonism / agonism [1]: antagonizes dopamine receptors at the same dose it stimulates 5-HT1A receptors

CCCN(CC1CC1)C1CCc2cccc(OC)c2C1 (stereo not shown) [Example 8-OMe-CPMAT, 8Methoxy-2-(N-cyclopropylmethyl-N-n-propylamino)tetralin]
Behavior ([2]; po): 5-HT syndr | Behavior ([2]; sc): 5-HT syndr | Bioavailability bioch po/sc [3]: 12% | IC50 ([4]; in vitro binding, read-out: In vitro binding 5-HT1A IC50): 6 nM | ED50 5-HTP limb ([5]; po): 3.3 µmol/kg | ED50 5-HTP limb ([5]; sc): 0.40 µmol/kg

COc1cccc2c1CC(N(CC1CC1)CC1CC1)CC2 (stereo not shown) [Example 8-OMe-DCPMAT, 8Methoxy-2-(N,N-dicyclopropylmethylamino)tetralin]
IC50 [6]: 40000 nM | Bioavailability plasma po/sc [7]: 6-16% | Behavior ([2]; po): 5-HT syndr | Behavior ([2]; sc): 5-HT syndr | Bioavailability temp po/sc [8]: 36% | Bioavailability bioch po/sc [3]: 60% | IC50 [4]: 21 nM | IC50 ratio of dopamine D2 to 5HT1A in vitro binding (selectivity) ([4]; in vitro binding, Table 1 data): demonstrates the selectivity for the 5-HT1A receptor | ED50 5-HTP limb ([5]; po): 2.0 µmol/kg | ED50 5-HTP limb ([5]; sc): 1.2 µmol/kg

COc1cccc2c1C[C@H](N(CC1CC1)CC1CC1)CC2 [Example 12, (+)-R-8-Methoxy-2-(di-cyclopropyl-methylamino)tetralin]
blood pressure lowering effects [9]: demonstrate blood pressure lowering effects

COc1cccc2c1CC(N(CCc1cccs1)CC1CC1)CC2 (stereo not shown) [Example 17, 8-Methoxy-2-(N-cyclopropylmethyl-N-(2-thiophenethyl)-amino)tetralin]
blood pressure lowering effects [9]: demonstrate blood pressure lowering effects

CC1(C)CC(=O)N(CCCCN2CCN(c3ncccn3)CC2)C(=O)C1 [Gepirone]
dopamine receptor antagonism / agonism [1]: has dopamine antagonist properties

CN1CCc2cccc3c2[C@H]1Cc1ccc(O)c(O)c1-3 [apomorphine]
dopamine receptor antagonism / agonism [1]: able to activate the dopamine autoreceptors as well as the post synaptic dopamine receptors

(-)-R-8-Methoxy-2-(di-cyclopropylmethylamino)tetralin [Example 13]
blood pressure lowering effects [9]: demonstrate blood pressure lowering effects
